Measurements as given in PMC6394990, “Detailed characterization of the solution kinetics and thermodynamics of biotin, biocytin and HABA binding to avidin and streptavidin” (PLoS ONE, 2019).
Values joined by “and” are separate entries in the source; they are usually repeats but may differ in a detail not shown here. Equal values may be shown once.

Experiments:
[1] = target: T1, streptavidin (SAV) (Streptomyces avidinii, UniProt P22629); assay: Dissociation (displacement/replacement) of dye-labeled biotin complexes by unlabeled B7; type: binding; settings: for half-time of displacement: SAV-BcO AB1
T1 construct: purchased Sigma Aldrich (St. Louis, MO)
T1 sequence (P22629 25-183): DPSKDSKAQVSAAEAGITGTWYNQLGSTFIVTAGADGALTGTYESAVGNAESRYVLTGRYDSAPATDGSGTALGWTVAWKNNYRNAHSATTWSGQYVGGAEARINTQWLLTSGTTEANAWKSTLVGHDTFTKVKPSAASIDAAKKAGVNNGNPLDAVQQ
Method: Biotin dissociation was determined using labelled biotin (BcO and BFl) displaced by unlabeled biotin using minimally occupied and fully occupied binding sites. In the minimally occupied measurements, SAV is prepared with less than one site on average occupied by labelled biotin (AB1), using 800 nM SAV and 40 nM of BcO or BFl. For saturated SAV-labelled biotin (AB4) complexes, equimolar binding sites and labelled ligand were prepared, 40 nM SAV and 40 nM of BcO or BFl. The AB1 complexes were challenged in displacement experiments with several concentrations of unlabeled B7 (1500 nM, 1750 nM, 2000 nM and 2500 nM) at 20 ± 0.1°C. In AB1, SAV had 760 nM in open sites, therefore the total challenging B7 concentrations were 740 nM, 990 nM, 1240 nM and 1740 nM, respectively. […] The 40 nM AB4 complexes were challenged with unlabeled B7 concentrations of 400 nM (10X) and 1600 nM (40X) at 20 ± 0.1°C. The dissociation reactions of AV complexes were carried out with a preformed complex of 20 nM BFl or BcO and 260 nM AV for a filling model of AB1 and challenged with unlabeled B7 at 2,000 nM.
The rss measurements were collected using the Giblin-Parkhurst modification of the Wampler-Desa method as described previously. The fluorescence signal was detected in a model A-1010 Alphascan fluorimeter (Photon Technologies, Inc., Birmingham, NJ) equipped with an R928 PMT (Hamamatsu, Bridgewater, NJ). The excitation was provided by an Ar^+ ion laser (Coherent Innova 70–4 Argon, Santa Clara, CA) at 488 nm and 5–10 mW of power incident on the sample. A photoelastic modulator (PEM-80; HINDS International, Inc., Portland, OR) was placed between the laser source and the sample compartment with a retardation level of 1.22π, and the PEM stress axis orientated 45° with respect to the E vector of the laser beam. Two signals were acquired with the PEM alternating between “on” and “off” positions for 10 seconds and the data fitted to a least squared straight line to minimize noise. A minimum of six of these independent measurements were averaged to acquire the rss values. The fluorimeter G factor was determined using a film polarizer and analyzer with an excitation at 488 nm provided by a xenon arc lamp (model A1010, Photon Technologies Inc, Princeton, NJ). The dissociation reactions of dye-labeled B7 and protein complexes were monitored by fluorescence changes and were also collected in the fluorimeter described above.
The dissociation reactions were followed by fluorescence changes, F¯(t) , in the fluorimeter and laser setup described above and tuned to 488 nm under discontinuous excitation to prevent photobleaching distortion. The signal was best fitted to the following dissociation model (Eq 10), in which the dye labeled complex dissociates into the labeled B7 probe (BFl or BcO) and the respective protein (AV or SAV).

[2] = Fluorescence lifetimes, unbound probe; type: physicochemical; settings: unbound dye; t for BFl and BcO, average lifetime for B-DNAds*Fl; in ns
Method: (§1) The lifetimes (τ), steady state anisotropies (rss), time-resolved anisotropies (rt) and quantum yields (QY) of the complexes (at 20 ± 0.1°C and pH 8) were collected with a dye-labeled B7 probe concentration of 20–40 nM and 1040–2080 nM of either protein (AV or SAV) to ensure that only one binding site in the tetramer was filled with a ligand (AB1 filling model).
The lifetimes were collected in a FluoTime100 fluorescence spectrometer (PicoQuant, GmbH, Berlin, Germany) with the excitation light source provided by a picosecond pulsed diode laser (PicoQuant, GmbH, Berlin, Germany) at 470 nm and 20 MHz. The emission was collected at 520 nm through a non-fluorescing 520 nm interference filter (Oriel Corp., Stratford, CT) followed by a liquid filter of 1cm path length containing 24 mM acetate buffered dichromate at pH 4, between the sample and detector to eliminate traces of excitation light. The fluorescence decays were fit by a nonlinear least-squares minimization based on the Marquardt algorithm embedded in the Fluofit software (PicoQuant GmbH). […] The PicoQuant G factor was calculated according to: G = ∫HV(t)dt/∫HH(t)dt, where HV(t) and HH(t) were the decays collected with the emission polarizer selecting vertical and horizontal E-vector passing orientations, respectively, and the excitation polarizer set at horizontally position.

[3] = target: T1, streptavidin (SAV); assay: Fluorescence lifetimes, SAV complex; type: physicochemical; settings: for t (1), fluorescence lifetime: complex with SAV, t for BFl and BcO, average lifetime for B-DNAds*Fl
Method: as §1
The lifetimes were collected in a FluoTime100 fluorescence spectrometer (PicoQuant, GmbH, Berlin, Germany) with the excitation light source provided by a picosecond pulsed diode laser (PicoQuant, GmbH, Berlin, Germany) at 470 nm and 20 MHz. The emission was collected at 520 nm through a non-fluorescing 520 nm interference filter (Oriel Corp., Stratford, CT) followed by a liquid filter of 1cm path length containing 24 mM acetate buffered dichromate at pH 4, between the sample and detector to eliminate traces of excitation light. The fluorescence decays were fit by a nonlinear least-squares minimization based on the Marquardt algorithm embedded in the Fluofit software (PicoQuant GmbH). Twenty-eight decays were collected per sample, the decays were grouped in four sets, consisting of seven sample decays and one Instrument Response Function, IRF, for deconvolution proposes. The decay sets were globally fitted to mono- or bi-exponential decay models that were discriminated using the statistical parameter χ^2. The rt data were acquired with the fluorimeter described above equipped with a polarizer and an analyzer to acquire the parallel VV(t) and perpendicular VH(t) decays. The PicoQuant G factor was calculated according to: G = ∫HV(t)dt/∫HH(t)dt, where HV(t) and HH(t) were the decays collected with the emission polarizer selecting vertical and horizontal E-vector passing orientations, respectively, and the excitation polarizer set at horizontally position.

[4] = Quantum yields (QY), unbound probe; type: physicochemical; settings: unbound dye
Method: as §1
The QY values were obtained by using a reference fluorophore of known quantum yield and were calculated according to Parker and Rees, where the reference dye was fluorescein in 0.1N sodium hydroxide solution [46]. The emission fluorescence scans were collected from 480 nm to 700 nm with the excitation light set at 460 nm provided by the xenon arc lamp described above. These measurements were made on the AB1 complexes at high protein concentration.

[5] = Intrinsic lifetime, dynamic quantum yield and fraction of non-statically quenched molecules, unbound probe; type: physicochemical; settings: for t° (2), intrinsic lifetime of the fluorescence dye: in ns; for 1-S (4) = QY/F, fraction of non-statically quenched molecules / F (3) = Sat/t° / S: unbound dye

Which “release (displacement) of the bound probe” value ([1]; SAV-BFl complex, AB1, 30°C, challenging B7 1400 nM) does the source give for `O=C(CCCC[C@@H]1SC[C@@H]2NC(=O)N[C@@H]21)NCCNC(=O)c1ccc(-c2c3ccc(=O)cc-3oc3cc(O)ccc23)c(C(=O)O)c1` [BFl, Biotin-4-fluorescein] here?
Its value is 5%.

What about the “t (1), fluorescence lifetime” value [2] of the same compound?
Its value is 4.03 ± 0.01.

What about the “Σαiτi (integrated lifetime)” value ([3]; SAV complex) of the same compound?
Its value is 3.70 ± 0.05 ns.

What about the α1 ([3]; SAV complex) of the same compound?
Its α1 is 0.61 ± 0.03.

What about the α2 ([3]; SAV complex) of the same compound?
Its α2 is 0.39 ± 0.03.

What about the τ1 ([3]; SAV complex) of the same compound?
The τ1 was 4.10 ± 0.02 ns.

What about the τ2 ([3]; SAV complex) of the same compound?
The τ2 was 3.1 ± 0.02 ns.

And the “Lifetime τ” value ([3]; SAV complex, di-ionic fluorescein species)?
The value was 4.1 ns and 4.1 ± 0.1 ns.

And the “Lifetime τ” value ([3]; SAV complex, mono-ionic fluorescein species)?
Its value is 3.0 ns and 3.0 ± 0.1 ns.

And the “t (1), fluorescence lifetime” value [3]?
The value was 3.69 ± 0.01.

And the “488, correction, absR/abs” value [4]?
The value was 1.

What about the QY [4] of the same compound?
The QY was 0.52 and 0.52 ± 0.02.

What about the “QY multiplied by the 488 correction absR/abs” value [4] of the same compound?
The value was 0.52.

What about the “t° (2), intrinsic lifetime of the fluorescence dye” value [5] of the same compound?
Its value is 5.2 ± 0.2.

What about the “1-S (4) = QY/F, fraction of non-statically quenched molecules” value [5] of the same compound?
Its value is 0.65 (2×) and 0.65 ± 0.06.

And the “F (3) = Sat/t°” value [5]?
The value was 0.81 ± 0.04.

And the S [5]?
Its S is 0.35.

Which half-time of displacement ([1]; 20°C, challenging B7 740 nM) does the source give for `NC(CCCCNC(=O)CCCC[C@@H]1SC[C@@H]2NC(=O)N[C@@H]21)C(=O)NCCCCCNC(=O)c1ccc(-c2c3cc(F)c(=O)cc-3oc3cc(O)c(F)cc23)c(C(=O)O)c1` (some centres unmarked) [BcO, Oregon green 488 Biocytin] here?
The half-time of displacement was 56.6 s.

And the half-time of displacement ([1]; 20°C, challenging B7 1240 nM)?
Its half-time of displacement is 33.9 s.

And the half-time of displacement ([1]; 20°C, challenging B7 1740 nM)?
Its half-time of displacement is 24.2 s.

What about the “release amplitude of the displacement reaction” value ([1]; SAV-BcO complex challenged with unlabeled B7, 20°C) of the same compound?
Its value is ~ 79% and 79 ± 1%.

And the “t (1), fluorescence lifetime” value [2]?
Its value is 3.75 ± 0.04.

And the “Lifetime τ” value ([3]; SAV complex (AB1), 20°C, pH 8)?
Its value is 3.98 ± 0.01 ns.

And the “t (1), fluorescence lifetime” value [3]?
Its value is 3.98 ± 0.01.

And the QY [4]?
The QY was 0.91 and 0.91 ± 0.02.

What about the “t° (2), intrinsic lifetime of the fluorescence dye” value [5] of the same compound?
The value was 4.4 ± 0.1.

And the “1-S (4) = QY/F, fraction of non-statically quenched molecules” value [5]?
Its value is 1 and 1.00 ± 0.02.

What about the “F (3) = Sat/t°” value [5] of the same compound?
The value was 0.85 ± 0.02.

What about the S [5] of the same compound?
The S was 0.
